IC50 and Ki data for 13 compounds are collected here from ChEMBL document CHEMBL1909046, “DrugMatrix in vitro pharmacology data”.

A short description of assay [1]: DRUGMATRIX: Sodium/nucleoside co-transporter radioligand binding (ligand: nitrobenzylthioinosine). The assay is classed as cell membranes, Cavia porcellus, Dunkin-Hartley, Cerebral cortex, Membrane. The following applies: Not Active = under 50% inhibition at 10 µM.
In assay [2] the target is Beta-2 adrenergic receptor (Homo sapiens, UniProt P07550). In words: DRUGMATRIX: Adrenergic beta2 radioligand binding (ligand: [3H] CGP-12177). It counts as cell membranes, CHO, Membrane. The following applies: Not Active = under 50% inhibition at 10 µM.
The target of assay [3] is Substance-P receptor (Homo sapiens, UniProt P25103). It counts as cell membranes, Membrane. The following applies: cho. Also: in other assays of this panel Not Active means under 50% inhibition at 10 µM.
In assay [4] the target is T1, Thromboxane-A synthase (Homo sapiens, UniProt P24557).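 Also: enzyme inhibition assay with PGH2 supplied as substrate; in other assays of this panel Not Active means under 50% inhibition at 10 µM.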
T1 sequence (P24557 whole entry): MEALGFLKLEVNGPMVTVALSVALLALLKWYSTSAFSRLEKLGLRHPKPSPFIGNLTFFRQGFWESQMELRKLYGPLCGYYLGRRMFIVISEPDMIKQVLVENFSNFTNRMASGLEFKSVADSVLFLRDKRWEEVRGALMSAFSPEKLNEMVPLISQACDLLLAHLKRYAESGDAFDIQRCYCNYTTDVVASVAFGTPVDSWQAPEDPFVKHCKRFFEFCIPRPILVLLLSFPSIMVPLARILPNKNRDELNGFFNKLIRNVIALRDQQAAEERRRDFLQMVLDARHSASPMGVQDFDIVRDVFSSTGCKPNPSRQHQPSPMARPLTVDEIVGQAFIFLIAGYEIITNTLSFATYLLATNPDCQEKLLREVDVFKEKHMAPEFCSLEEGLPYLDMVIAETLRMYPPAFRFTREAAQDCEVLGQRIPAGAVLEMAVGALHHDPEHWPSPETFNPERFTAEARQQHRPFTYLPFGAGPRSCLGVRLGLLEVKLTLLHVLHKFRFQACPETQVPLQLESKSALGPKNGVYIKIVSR
In words: biochemical. The assay is classed as tissue-based, Platelet. The following applies: platelet.

For assay [5], the target named is D(3) dopamine receptor (Homo sapiens, UniProt P35462). In words: DRUGMATRIX: Dopamine D3 radioligand binding (ligand: [3H] Spiperone). The following applies: for Ki: read-out: Ki. The assay is classed as cell membranes, CHO, Membrane.
Assay [6] is described as follows: DRUGMATRIX: GABAA, Muscimol, Central radioligand binding (ligand: [3H] Muscimol). The assay is classed as cell membranes, Rattus norvegicus, Wistar, Brain, Membrane. The conditions noted are these: Not Active = under 50% inhibition at 10 µM.
Assay [7] addresses T2, Neuropeptide Y receptor type 1 (Homo sapiens, UniProt P25929).
T2 sequence (P25929 whole entry): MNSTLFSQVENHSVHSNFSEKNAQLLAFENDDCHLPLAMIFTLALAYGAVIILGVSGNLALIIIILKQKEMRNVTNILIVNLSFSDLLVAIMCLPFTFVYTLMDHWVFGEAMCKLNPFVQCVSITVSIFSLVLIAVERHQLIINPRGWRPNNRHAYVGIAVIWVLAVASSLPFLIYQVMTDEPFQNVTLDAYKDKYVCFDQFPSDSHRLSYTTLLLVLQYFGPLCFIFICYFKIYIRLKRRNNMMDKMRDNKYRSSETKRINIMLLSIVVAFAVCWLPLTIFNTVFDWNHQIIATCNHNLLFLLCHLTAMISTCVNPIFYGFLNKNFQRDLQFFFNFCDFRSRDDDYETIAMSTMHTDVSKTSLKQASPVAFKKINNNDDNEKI
The assay is classed as cell membranes, Membrane. The following applies: sk-n-mc.

Assay [8] deals with T3, Nitric oxide synthase, inducible (Mus musculus, UniProt P29477).
T3 sequence (P29477 whole entry): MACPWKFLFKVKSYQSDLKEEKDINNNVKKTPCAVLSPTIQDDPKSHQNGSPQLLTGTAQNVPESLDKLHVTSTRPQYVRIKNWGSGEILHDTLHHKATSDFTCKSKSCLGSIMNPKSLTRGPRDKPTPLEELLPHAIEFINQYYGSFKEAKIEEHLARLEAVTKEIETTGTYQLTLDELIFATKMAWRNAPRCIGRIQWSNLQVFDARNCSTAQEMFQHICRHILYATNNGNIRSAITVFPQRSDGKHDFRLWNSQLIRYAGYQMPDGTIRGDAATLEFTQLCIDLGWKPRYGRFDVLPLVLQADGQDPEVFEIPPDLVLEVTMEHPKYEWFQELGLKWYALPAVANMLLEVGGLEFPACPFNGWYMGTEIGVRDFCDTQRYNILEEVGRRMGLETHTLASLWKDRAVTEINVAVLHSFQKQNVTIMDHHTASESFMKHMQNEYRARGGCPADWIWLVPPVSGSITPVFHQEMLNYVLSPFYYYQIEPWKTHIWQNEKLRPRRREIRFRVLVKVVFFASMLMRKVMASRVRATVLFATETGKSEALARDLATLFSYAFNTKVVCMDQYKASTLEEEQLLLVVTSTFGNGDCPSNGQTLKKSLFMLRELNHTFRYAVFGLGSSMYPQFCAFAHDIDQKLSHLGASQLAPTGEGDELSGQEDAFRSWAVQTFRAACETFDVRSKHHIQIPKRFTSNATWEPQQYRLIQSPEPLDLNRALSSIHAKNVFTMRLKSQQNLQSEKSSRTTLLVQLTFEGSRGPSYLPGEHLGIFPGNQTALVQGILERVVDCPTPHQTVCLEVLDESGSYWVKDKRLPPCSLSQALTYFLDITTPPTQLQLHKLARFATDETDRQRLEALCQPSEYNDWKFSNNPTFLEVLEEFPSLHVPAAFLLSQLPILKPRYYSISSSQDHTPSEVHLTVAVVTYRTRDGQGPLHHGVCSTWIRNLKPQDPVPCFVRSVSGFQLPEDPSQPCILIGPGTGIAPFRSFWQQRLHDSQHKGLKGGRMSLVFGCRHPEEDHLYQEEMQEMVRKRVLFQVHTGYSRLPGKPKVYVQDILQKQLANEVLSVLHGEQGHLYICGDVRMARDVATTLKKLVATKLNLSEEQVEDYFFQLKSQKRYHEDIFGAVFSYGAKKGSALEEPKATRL
The arrangement: species or system Escherichia coli.

D(3) dopamine receptor, sequence (P35462 whole entry): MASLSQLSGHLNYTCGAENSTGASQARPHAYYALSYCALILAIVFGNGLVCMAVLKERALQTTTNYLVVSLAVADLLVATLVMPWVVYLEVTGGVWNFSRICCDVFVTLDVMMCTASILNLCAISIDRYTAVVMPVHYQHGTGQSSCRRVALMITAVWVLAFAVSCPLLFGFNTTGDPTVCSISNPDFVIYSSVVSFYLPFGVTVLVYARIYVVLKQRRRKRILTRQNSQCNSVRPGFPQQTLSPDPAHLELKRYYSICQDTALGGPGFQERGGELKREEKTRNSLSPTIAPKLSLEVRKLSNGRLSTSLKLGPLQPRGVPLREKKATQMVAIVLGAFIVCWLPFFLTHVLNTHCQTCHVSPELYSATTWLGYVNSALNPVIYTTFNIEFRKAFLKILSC
Substance-P receptor, sequence (P25103 whole entry): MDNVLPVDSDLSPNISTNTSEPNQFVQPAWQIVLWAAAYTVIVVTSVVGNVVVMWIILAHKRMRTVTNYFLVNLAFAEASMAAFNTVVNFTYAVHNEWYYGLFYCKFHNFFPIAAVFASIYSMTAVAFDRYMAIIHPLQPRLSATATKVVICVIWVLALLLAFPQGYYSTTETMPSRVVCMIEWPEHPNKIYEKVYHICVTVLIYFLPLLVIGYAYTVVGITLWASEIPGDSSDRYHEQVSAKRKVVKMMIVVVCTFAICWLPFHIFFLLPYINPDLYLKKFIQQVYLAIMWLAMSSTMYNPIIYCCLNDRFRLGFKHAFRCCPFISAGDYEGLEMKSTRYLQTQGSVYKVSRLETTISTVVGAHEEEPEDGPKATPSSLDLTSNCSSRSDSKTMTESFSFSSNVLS
Beta-2 adrenergic receptor, sequence (P07550 whole entry): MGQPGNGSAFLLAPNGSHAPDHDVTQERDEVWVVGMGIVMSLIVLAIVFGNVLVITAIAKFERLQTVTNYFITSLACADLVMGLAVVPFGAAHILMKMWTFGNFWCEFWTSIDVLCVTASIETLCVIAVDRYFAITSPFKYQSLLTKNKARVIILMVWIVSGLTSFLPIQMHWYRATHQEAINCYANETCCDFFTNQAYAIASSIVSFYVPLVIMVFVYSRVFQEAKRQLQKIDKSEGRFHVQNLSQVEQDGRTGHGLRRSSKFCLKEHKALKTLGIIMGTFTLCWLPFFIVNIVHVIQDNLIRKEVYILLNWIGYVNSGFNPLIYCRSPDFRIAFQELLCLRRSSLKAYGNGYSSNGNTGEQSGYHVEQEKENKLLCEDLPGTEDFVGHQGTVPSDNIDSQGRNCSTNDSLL

In general, IC50 refers to the concentration needed to halve the response being measured. By Ki is commonly meant a measure of affinity in units of concentration, obtained from inhibition or displacement. As to `CN1C[C@H](C(=O)N[C@]2(C)O[C@@]3(O)[C@@H]4CCCN4C(=O)[C@H](Cc4ccccc4)N3C2=O)C[C@@H]2c3cccc4[nH]cc(c34)C[C@H]21` [DIHYDROERGOTAMINE], the IC50 result was “Not Active” in assay [1]; “Not Active” in assay [2] (cho); “Not Active” in assay [3]; “Not Active” in assay [4]; 0.00534 µM in assay [5] (read-out: IC50); “Not Active” in assay [6]. The half-inhibitory concentration (IC50) entry in assay [7] and in assay [8] was “Not Active” throughout. The Ki result in assay [1] is “Not Active”; in assay [5], 0.00181 µM; in assay [6], “Not Active”.
As to `Cc1c(N(C)CS(=O)(=O)[O-])c(=O)n(-c2ccccc2)n1C.[Na+]` [DIPYRONE SODIUM], the IC50 entry in assay [1], in assay [2] (cho), in assay [3], in assay [4], in assay [5] (cho) and in assay [6] was “Not Active” throughout. The IC50 entry in assay [7] and in assay [8] was “Not Active” throughout. Further, the Ki result in assay [1] and in assay [6] was “Not Active” throughout.
Regarding `CC(CCc1ccc(O)cc1)NCCc1ccc(O)c(O)c1` (stereo not drawn) [DOBUTAMINE], the IC50 result in assay [1] is “Not Active”; in assay [2] (read-out: IC50) it was 1.52 µM; in assay [3] it was “Not Active”; in assay [4] it was “Not Active”; in assay [5] (read-out: IC50), 4.99 µM; in assay [6], “Not Active”. In addition, the IC50 entry in assay [7] and in assay [8] was “Not Active” each time. Also, the Ki result in assay [1] is “Not Active”; in assay [2] (read-out: Ki), 1.04 µM; in assay [5], 1.69 µM; in assay [6] it was “Not Active”.
On to `CCn1cc(C(=O)O)c(=O)c2cc(F)c(N3CCNCC3)nc21` [ENOXACIN], for which the IC50 result in assay [1], in assay [2] (cho), in assay [3], in assay [4], in assay [5] (cho) and in assay [6] was “Not Active” each time. In addition, the IC50 entry in assay [7] and in assay [8] was “Not Active” throughout. Moreover, the Ki result in assay [1] and in assay [6] was “Not Active” in each case.
With `CCC(=O)O[C@H]1[C@H](O[C@@H]2[C@@H](C)[C@H](O[C@H]3C[C@@](C)(OC)[C@@H](O)[C@H](C)O3)[C@@H](C)C(=O)O[C@H](CC)[C@@](C)(O)[C@H](O)[C@@H](C)C(=O)[C@H](C)C[C@@]2(C)O)O[C@H](C)C[C@@H]1N(C)C` [ERYTHROMYCIN PROPIONATE], the half-maximal inhibitory concentration (IC50) entry in assay [1], in assay [2] (cho), in assay [3], in assay [4], in assay [5] (cho) and in assay [6] was “Not Active” in each case. Moreover, the IC50 entry in assay [7] and in assay [8] was “Not Active” each time. The Ki result in assay [1] and in assay [6] was “Not Active” each time.
Regarding `C=C(CC)C(=O)c1ccc(OCC(=O)O)c(Cl)c1Cl` [ETHACRYNIC ACID], the IC50 entry in assay [1], in assay [2] (cho), in assay [3], in assay [4], in assay [5] (cho) and in assay [6] was “Not Active” each time. Further, the IC50 result in assay [7] and in assay [8] was “Not Active” throughout. The Ki result in assay [1] and in assay [6] was “Not Active” throughout.
On to `C#C[C@]1(O)CC[C@H]2[C@@H]3CCc4cc(O)ccc4[C@H]3CC[C@@]21C` [ETHINYL ESTRADIOL], for which the IC50 entry in assay [1], in assay [2] (cho), in assay [3], in assay [4], in assay [5] (cho) and in assay [6] was “Not Active” each time. For the same compound, the IC50 result in assay [7] and in assay [8] was “Not Active” throughout. Besides, the Ki result in assay [1] and in assay [6] was “Not Active” each time.
For the compound `OCCO` [ETHYLENE GLYCOL], the IC50 entry in assay [1], in assay [2] (cho), in assay [3], in assay [4], in assay [5] (cho) and in assay [6] was “Not Active” each time. Also, the IC50 result in assay [7] and in assay [8] was “Not Active” in each case. The Ki entry in assay [1] and in assay [6] was “Not Active” throughout.
Turning to `CC(=O)OCC(CCn1cnc2cnc(N)nc21)COC(C)=O` [FAMCICLOVIR], the IC50 result in assay [1], in assay [2] (cho), in assay [3], in assay [4], in assay [5] (cho) and in assay [6] was “Not Active” each time. Besides, the IC50 result in assay [7] and in assay [8] was “Not Active” throughout. Besides, the Ki entry in assay [1] and in assay [6] was “Not Active” each time.
Turning to `O=C(O)Cc1ccc(-c2ccccc2)cc1` [FELBINAC], the IC50 entry in assay [1], in assay [2] (cho), in assay [3], in assay [4], in assay [5] (cho) and in assay [6] was “Not Active” each time. Besides, the IC50 entry in assay [7] and in assay [8] was “Not Active” each time. Besides, the Ki entry in assay [1] and in assay [6] was “Not Active” in each case.
As to `CCOC(=O)C1=C(C)NC(C)=C(C(=O)OC)C1c1cccc(Cl)c1Cl` (stereo not drawn) [FELODIPINE], the IC50 result in assay [1], in assay [2] (cho), in assay [3], in assay [4], in assay [5] (cho) and in assay [6] was “Not Active” in each case. The IC50 result in assay [7] and in assay [8] was “Not Active” throughout. The Ki entry in assay [1] and in assay [6] was “Not Active” throughout.
Take `CC(C(=O)O)c1ccc(-c2ccccc2)c(F)c1` (stereo not drawn) [FLURBIPROFEN]: the IC50 entry in assay [1], in assay [2] (cho), in assay [3], in assay [4], in assay [5] (cho) and in assay [6] was “Not Active” each time. The IC50 entry in assay [7] and in assay [8] was “Not Active” each time. In addition, the Ki result in assay [1] and in assay [6] was “Not Active” in each case.
Take `Cc1cn[nH]c1` [FOMEPIZOLE]: the half-maximal inhibitory concentration (IC50) result in assay [1], in assay [2] (cho), in assay [3], in assay [4], in assay [5] (cho) and in assay [6] was “Not Active” each time. The IC50 result in assay [7] and in assay [8] was “Not Active” in each case. Besides, the Ki result in assay [1] and in assay [6] was “Not Active” each time.
